The record followed here is PubChem BioAssay (NCI).

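1) Cells in 96-well plates. 2) Compound, 48 h, 5 concentrations. 3) Linear interpolation between surrounding doses. 4) Unreached endpoint = highest concentration. Here, GI50 denotes the concentration required for 50% inhibition of growth. Definition used: TGI = concentration required for complete inhibition of growth.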

What all share (test): growth of human tumour cells (NCI), 48 h
The test system of experiment [1] is MOLT-4 leukemia.
Experiment [2] deals with CCRF-CEM leukemia.
Experiment [3] has as its system SF-539 CNS.
Experiment [4] deals with SNB-19 CNS.
Experiment [5] deals with U251 CNS.
Experiment [6] has as its system SK-MEL-28 melanoma.
The subject of experiment [7] is SK-MEL-5 melanoma.
For experiment [8], the system named is SF-295 CNS.
For experiment [9], the system named is MDA-MB-435.
The test system of experiment [10] is HCT-116 colon.

`COc1cc2c(cc1OCCCCCOc1cc3c(cc1OC)C(=O)N1CC(F)C[C@H]1C=N3)N=C[C@@H]1CC(F)CN1C2=O` (stereo partly drawn): the GI50 was less than 0.01 µM in [1]; less than 0.01 µM in [2]; 0.0161 µM in experiment [3]; 0.376 µM in [4]; 0.0135 µM in experiment [5]; 0.424 µM in experiment [6]. Moreover, the GI50 in experiment [7] is 0.0511 µM; in [8] it was less than 0.0148 µM; in [9], 0.169 µM. The TGI in experiment [1] was 0.0663 µM; in [2], 0.0713 µM; in [3], 0.458 µM; in [4], more than 100 µM; in experiment [5], 0.235 µM; in [6], 8.45 µM. The TGI is 0.127 µM in experiment [7], 0.694 µM in [8] and 0.761 µM in experiment [9].

As for `COc1cc2cc(C(=O)CCC(=O)O)sc2cc1OC`, the GI50 in experiment [1] was more than 100 µM; in experiment [2], more than 100 µM; in [3], 16.5 µM; in experiment [4] it was more than 100 µM; in [5], more than 100 µM; in [6], more than 100 µM. The GI50 in experiment [7], in [8], in experiment [9] and in [10] was more than 100 µM throughout. Moreover, the TGI in experiment [1], in [2], in [3], in experiment [4], in experiment [5] and in [6] was more than 100 µM in each case. For the same molecule, the TGI in experiment [7], in experiment [8], in experiment [9] and in experiment [10] was more than 100 µM each time.

With `Cn1cc(C2=C(c3cn(CCO)c4ccccc34)C(=O)NC2=O)c2ccccc21`, the GI50 in experiment [1] was 1.36 µM; in [2] it was 1.37 µM; in [3], 1.4 µM; in experiment [4], 7.09 µM; in [5], 1.98 µM; in [6], 3.76 µM. Further, the GI50 was 2.55 µM in [7], 1.18 µM in experiment [8], 0.746 µM in experiment [9] and 1.49 µM in [10]. Also, the TGI in experiment [1] was 16.8 µM; in experiment [2], more than 20 µM; in [3], 8.9 µM; in experiment [4], more than 25 µM; in experiment [5] it was 13.7 µM; in [6], 20.2 µM. For the same molecule, the TGI is 9.67 µM in experiment [7], 7.58 µM in experiment [8], more than 25 µM in [9] and more than 25 µM in [10].

`COc1cc(-c2nc3sccn3c2-c2ccnc(NCCNS(=O)(=O)c3ccc(Cl)cc3)n2)ccc1F`: the GI50 is 1.42 µM in [1]; 0.48 µM in [2]; 6.98 µM in experiment [3]; 74 µM in [4]; 7.67 µM in experiment [5]; 4.37 µM in [6]. Further, the GI50 is 1.87 µM in experiment [7], 4.07 µM in experiment [8], 3.63 µM in experiment [9] and 3.56 µM in experiment [10]. In addition, the TGI in experiment [1], in experiment [2], in experiment [3], in [4], in experiment [5] and in experiment [6] was more than 100 µM in each case. Moreover, the TGI in experiment [7] was 4.19 µM; in [8], more than 100 µM; in [9] it was 58.1 µM; in [10], more than 100 µM.

For the molecule `O=C(Nc1ccc(F)cc1)Nc1ccccc1CNc1nc(Nc2ccc(OCCN3CCCC3)cc2)ncc1Cl`, the GI50 in [1] is 1.53 µM; in experiment [2] it was 1.6 µM; in experiment [3] it was 0.831 µM; in experiment [4], 3 µM; in [5], 1.28 µM; in [6], 0.899 µM. In addition, the values for the GI50 in experiment [7], in [8] and in experiment [9] were 1.55 µM, 1.97 µM and 1.03 µM, respectively. For the same molecule, the TGI in experiment [1] came out at 4.74 µM; in experiment [2] it was 5.93 µM; in experiment [3] it was 1.57 µM; in experiment [4], 11.1 µM; in experiment [5], 3.73 µM; in experiment [6], 1.78 µM. For the same molecule, the TGI is 4.98 µM in experiment [7], 7.67 µM in [8] and 2.28 µM in [9].

In the case of `Cc1nc(-c2ccccc2)c(Cc2ccccc2O)c(=O)[nH]1`, the TGI in experiment [1], in experiment [2], in experiment [3], in experiment [4], in experiment [5] and in experiment [6] was more than 100 µM each time. The TGI in experiment [7], in experiment [8], in experiment [9] and in experiment [10] was more than 100 µM each time.

Take `C/C=C/C/C=C/CCC(=O)[C@H]1O[C@H]1C(N)=O`: the GI50 was 8.56 µM in [1]; 6.02 µM in experiment [2]; 14.5 µM in experiment [4]; 14.5 µM in experiment [5]; 12.5 µM in [7]; 11.6 µM in experiment [9]. Moreover, the GI50 in experiment [10] is 8.15 µM. The TGI in [1] amounted to 52 µM; in experiment [2], 62.3 µM; in [3], 31.8 µM; in [4], 29.5 µM; in [5], 28.3 µM; in [6], 28.3 µM. Also, the TGI stood at 25.2 µM in experiment [7], 34.8 µM in [8], 25 µM in [9] and 22 µM in experiment [10].

As for `O=[N+]([O-])c1ccccc1N=Nc1c(O)[nH]c2ccc(Br)cc12`, the TGI is more than 78.5 µM in experiment [1]; 31.9 µM in experiment [2]; more than 100 µM in experiment [3]; 45.2 µM in experiment [4]; more than 53.3 µM in experiment [5]; more than 61.9 µM in experiment [6]. The TGI in experiment [7] is more than 37.7 µM; in [8] it was 34.3 µM; in [9], more than 94.4 µM; in experiment [10] it was more than 67 µM.
